What was measured:
[1] = system: B-cells; test: B-cell antibody-forming cell method; type: cell-based, mice; conditions: 10 μg/mL
From the text: A better understanding of the present invention may be obtained through the following examples which are set forth to illustrate, but are not to be construed as the limit of the present invention. In the following examples, splenocytes taken from B6C3F mice were used for the measurement of the immuno-stimulating activity of the polysaccharide substances isolated from Phellinus linteus Yoo and other Phellinus spp. First, the splenocytes were immunized for 2 days by treatment with the substances and lipopolysaccharide as a positive control. The antibodies formed were measured by a spectrophotometer and considered as a standard for the immuno-stimulating activity. The effect of the polysaccharide substance on the proliferation of T-cells was measured by a mixed lymphocyte response technique. To detect the proliferation of lymphocytes, nuclear DNA which was newly synthesized in lymphocytes was measured by using ^3H-thymidine. In this example, B-cells were counted by use of an antibody-forming cell method and the proliferation of T-cells was measured by a mixed lymphocyte response technique. In addition, in order to detect the effect of the polysaccharide substance on the proliferation of lymphocytes, the nuclear DNA which was newly synthesized was measured by using ^3H-thymidine.

[2] = system: NCl-H23 human lung cancer cells; test: Direct cytotoxicity, sulforhodamin B method; type: cell-based; conditions: 2nd day after treatment
[3] = system: B16F10 cutaneous cancer cells; test: Viability of mice implanted peritoneally with B16F10 cells, immunochemotherapy co-administration (60 days); type: in vivo, mouse; conditions: for body weight during the test: all test groups, alone or in combination, 60-day test; for Proportion (%): untreated = 100
From the text: (§1) A homogeneous plantation test system of B16F10 cutaneous cancer cell was utilized for the measurement of the anticancer activity upon co-administration of the polysaccharide substance and adriamycin. The cutaneous cancer cells were implanted in the peritoneal cavity of mice. Adriamycin was peritoneally administrated to the mice for 12 days after tumor implantation while the polysaccharide substance was peritoneally administrated from a week before the implantation to 12 days after the implantation. For 60 days, the viability of the mice was recorded everyday. Adriamycin was used at such low amounts as not to damage the mice.
The cutaneous cancer cells were implanted in the peritoneal cavity of mice. […] For 60 days, the viability of the mice was recorded everyday.
The cutaneous cancer cells were implanted in the peritoneal cavity of mice. […] For 60 days, the viability of the mice was recorded everyday. Cisplastin was used at such low amounts as not to damage the mice.
as §1, with “5-fluoro uracil, as in the above experiments.” for “adriamycin.”, “5-fluoro uracil” for “Adriamycin”

[4] = system: B16F10 cutaneous cancer cells; test: Lung metastasis of B16F10 cells implanted in tail veins; type: in vivo, C57BL/6 mice; conditions: 14th day
From the text: In order to test the polysaccharide substance for the prevention of cancer metastasis, B16F10 cutaneous cancer cells were implanted in the tail veins of C57BL/6 mice. On the 14th day after implantation, the lungs were isolated from the mice to investigate whether or to what extent cancer metastasis occurred. Adriamycin was peritoneally administrated to the mice for 12 days after tumor implantation while the polysaccharide substance was peritoneally administrated from a week before the implantation to 12 days after the implantation.

[5] = system: B16F10 mouse cutaneous cancer cells; test: Direct cytotoxicity, sulforhodamin B method; type: cell-based; conditions: 2nd day after treatment
[6] = system: NCl-H23 lung cancer cells; test: Human cancer cells implanted subcutaneously in nude mice; type: in vivo
Procedure: The activity of the polysaccharide substance against human cancer was assayed using NCl-H23, a lung cancer cell line. Nude mice were subcutaneously implanted with NCl-H23 lung cancer cells. The polysaccharide substance and adriamycin were peritoneally administrated to the nude mice for 12 days after cancer cell implantation. The size of a mass of the cancer cells was measured and the cancer cells were separated and weighed on the 19th day after cancer cell implantation. Because the nude mice were devoid of T-cells, their immunological competency was generally attributed to the activity of natural killer cells or macrophage cells. Therefore, the immunological enhancement obtained when administrating the polysaccharide substance was meditated through these two type cells.

Molecule: lipopolysaccharide [LPS]
- B-Cell Antibody-forming [1]: 0.81 ± 0.23 Abs 576 nm

Molecule: COc1cccc2c1C(=O)c1c(O)c3c(c(O)c1C2=O)C[C@@](O)(C(=O)CO)C[C@@H]3O[C@H]1C[C@H](N)[C@H](O)[C@H](C)O1 [Adriamycin, adriamycin]
- cell quantity (untreated = 100%) ([2]; 1 μg/mL): 71%
- cell quantity (untreated = 100%) ([2]; 3 μg/mL): 39%
- cell quantity (untreated = 100%) ([2]; 10 μg/ml): 7%
- cell quantity (untreated = 100%) ([2]; 30 μg/mL): −1%
- Nos. of viable mice on the 60th day ([3]; Am 0.1 mg/kg): 0/10
- Nos. of viable mice on the 60th day ([3]; Am 0.3 mg/kg): 2/10
- body weight during the test [3]: did not lose body weight
- Nos. of Spots (cancer spots on the lungs) ([4]; Adriamycin 1 mg/kg peritoneally for 12 days): 197
- Nos. of Spots (cancer spots on the lungs) ([4]; Adriamycin 3 mg/kg): 172
- cell quantity (untreated = 100%) ([5]; 1 μg/mL): 29%
- cell quantity (untreated = 100%) ([5]; 3 μg/mL): 9%
- cell quantity (untreated = 100%) ([5]; 10 μg/ml): −10%
- cell quantity (untreated = 100%) ([5]; 30 μg/mL): −10%
- Cell size ([6]; 14th day, Am 1 mg/kg peritoneally for 12 days after implantation): Am^2 (1 mg/kg) 12 mm^3
- Final Cancer Weight ([6]; 19th day after implantation, Adriamycin 1 mg/kg): 95
- body weight of tested mice ([6]; nude mice, all test groups): did not gain or lose body weight

Molecule: O=c1[nH]cc(F)c(=O)[nH]1 [5-FU, 5-fluoro uracil]
- Nos. of viable mice on the 60th day ([3]; 5-FU 1 mg/kg): 0/10
- Avg. Viability ([3]; 5-FU 1 mg/kg peritoneally for 12 days after implantation): 33.0 days
- Nos. of viable mice on the 60th day ([3]; 5-FU 3 mg/kg): 2/10
- body weight during the test [3]: did not lose body weight

Molecule: CO[C@@]12[C@H](COC(N)=O)C3=C(C(=O)C(C)=C(N)C3=O)N1C[C@@H]1N[C@@H]12 [M.C, Mitomycin C]
- Nos. of viable mice on the 60th day ([3]; M.C 0.2 mg/kg): 0/10
- Avg. Viability ([3]; M.C 0.2 mg/kg peritoneally for 12 days after implantation): 32.5 days
- Proportion (%) ([3]; M.C 0.2 mg/kg): 179.6%
- Avg. Viability ([3]; M.C 0.6 mg/kg): 38.0 days
- Nos. of viable mice on the 60th day ([3]; M.C 0.6 mg/kg): 1/10
- Proportion (%) ([3]; M.C 0.6 mg/kg): 209.9%

Molecule: N.N.[Cl][Pt][Cl] [C.P, Cisplatin]
- Nos. of viable mice on the 60th day ([3]; C.P 0.5 mg/kg): 0/10
- Avg. Viability ([3]; C.P 0.5 mg/kg peritoneally for 12 days after implantation): 33.0 days
- Avg. Viability ([3]; C.P 0.5 mg/kg peritoneally for 12 days after implantation, listed as Cisplatin): 33 days
- Nos. of viable mice on the 60th day ([3]; C.P 1.5 mg/kg): 2/10
